{"source": "patent US4542169A", "about": "“Biomedical devices containing isothiazolones to control bacteria growth” (Rohm and Haas Company, priority 1983, dated 1985)", "key": {"Aspergillis niger (A.n.) [1]": {"test_system": "Aspergillis niger (A.n.)", "test": "Zone of inhibition, polyvinyl chloride film", "assay_type": "cell-based", "details": "PVC film"}, "Aspergillus niger": {"test_system": "Aspergillus niger", "test": "Minimum inhibitory concentration, fungistatic activity", "assay_type": "cell-based", "details": "Table III: Active Ingredient MIC"}, "Pseudomonas aeruginosa": {"test_system": "Pseudomonas aeruginosa", "test": "Minimum inhibitory concentration, bacteriostatic activity", "assay_type": "cell-based", "details": "Table III: Active Ingredient MIC"}, "Aspergillis niger (A.n.) [2]": {"test_system": "Aspergillis niger (A.n.)", "test": "Growth of fungus on polyvinyl chloride film", "assay_type": "cell-based", "design": "key: 0: zero (no growth); 5: five (heavy growth)", "details": "PVC film", "protocol": "(§1) In a two-liter, three-necked, round-bottom, flask equipped with a mechanical stirrer was placed 100 g of polyvinyl chloride, 590 g of reagent grade tetrahydrofuran, and 40.0 g of dioctylphthalate. This was stirred with gentle heating (35°-40° C.) for two hours to completely dissolve the polyvinyl chloride. Then, a barium/calcium salt of a fatty acid (3.5 g), a phosphite chelating agent (1.5 g), stearic Acid (0.25 g) and epoxidized soy bean oil (7.5 g), were mixed with 21 g of tetrahydrofuran and added to the polyvinyl chloride solution. After stirring at room temperature for 30 minutes, the solution was ready for use.\n(§2) Films containing the isothiazolones were cast by first preparing a 0.5 weight percent polyvinyl chloride solution by adding the isothiazolone to the polyvinyl chloride solution. Then, portions of the 0.5% solution were diluted to 0.1 and 0.05%. The films were drawn down on 12\"×12\" glass plates using a 50 mil-3\" wide coating bar and the films were allowed to air dry for 48 hours.\n(§3) In addition to zones of inhibition, the films were observed by growth of fungus on the film and rated from zero (no growth) to five (heavy growth)."}, "[3]": {"test_system": "Aerobasidium pullulans (A.p)", "test": "Growth of fungus on polyvinyl chloride film", "assay_type": "cell-based", "design": "key: 0: zero (no growth); 5: five (heavy growth)", "details": "PVC film", "protocol": "as §1, §2, §3"}, "E.c.": {"test_system": "E.c.", "test": "Zone of inhibition, silicone rubber film discs on inoculated agar", "assay_type": "cell-based, Echerichia coli", "details": "for Zones: Silicone; for Zone of Inhibition: silicone rubber film", "excerpt": "(§4) The films were cut into 1.25 cm discs and placed in agar plates inoculated with Staphlococcus aureus (S.a) or Echerichia coli (E.c.).\n(§5) The films were cut into discs and tested as in example one against S.a. and E.c."}, "Echerichia coli (E.c.)": {"test_system": "Echerichia coli (E.c.)", "test": "Zone of inhibition, polyvinyl chloride film discs on inoculated agar", "assay_type": "cell-based", "details": "PVC film", "protocol": "as §1, §2, §4"}, "[4]": {"test_system": "Staphlococcus aureus (S.a)", "test": "Zone of inhibition, polyvinyl chloride film discs on inoculated agar", "assay_type": "cell-based", "details": "PVC film", "protocol": "as §1, §2, §4"}, "sessile colonization": {"test_system": "sessile colonization", "test": "Implanted polyvinyl chloride coated pacemakers in dogs, growth after one month", "assay_type": "in vivo", "details": "for Agar culture / Visual Observation: PVC-coated pacemaker, one month", "excerpt": "The devices are inserted into dogs and allowed to remain without electrical activation for a period of one month. The devices are then removed and examined visually and by agar cultures from the surface."}, "S.a.": {"test_system": "S.a.", "test": "Zone of inhibition, silicone rubber film discs on inoculated agar", "assay_type": "cell-based, Staphlococcus aureus", "details": "for Zones: Silicone; for Zones / Zone of Inhibition: S.a.; for Zone of Inhibition: silicone rubber film", "excerpt": "as §4, §5"}, "Escherichia coli": {"test_system": "Escherichia coli", "test": "Minimum inhibitory concentration, bacteriostatic activity", "assay_type": "cell-based", "details": "Table III: Active Ingredient MIC"}, "Candida albicans (yeast)": {"test_system": "Candida albicans (yeast)", "test": "Minimum inhibitory concentration, fungistatic activity", "assay_type": "cell-based", "details": "Table III: Active Ingredient MIC"}, "Aureobasidium pullulans": {"test_system": "Aureobasidium pullulans", "test": "Minimum inhibitory concentration, fungistatic activity", "assay_type": "cell-based", "details": "Table III: Active Ingredient MIC"}, "[5]": {"test_system": "Pseudomonas aeruginosa (P.a.)", "test": "Zone of inhibition, polyvinyl chloride (vinyl) film discs", "assay_type": "cell-based", "details": "vinyl film", "protocol": "as §1, §4\nDiscs were tested against Pseudomonas aeruginosa (P.a.). The 1.0% films gave a slight zone of inhibition while the 5.0% film gave a 1 mm zone of inhibition."}, "Solubility in H2O": {"test": "Solubility in H2O", "assay_type": "physicochemical", "details": "water"}, "fungi": {"test_system": "fungi", "test": "Observation of incubated plates (antibiotics vs Compound 1): fungal overgrowth", "assay_type": "cell-based", "details": "as the plates were allowed to incubate"}, "[6]": {"test_system": "resistant bacterial colonies", "details": "with time"}, "P.a.": {"test_system": "P.a.", "test": "Zone of inhibition, silicone film", "assay_type": "cell-based, Pseudomonas aeruginosa"}, "Staphylococcus aureus": {"test_system": "Staphylococcus aureus", "test": "Minimum inhibitory concentration, bacteriostatic activity", "assay_type": "cell-based", "details": "Table III: Active Ingredient MIC"}, "[7]": {"test_system": "sessile colonization by bacteria or fungi", "test": "Implanted silicone rubber urinary catheters in dogs, growth after one week", "assay_type": "in vivo", "details": "silicone catheter; for Agar culture / Visual Examination: one week", "excerpt": "These are inserted into large male dogs held in restraining harnesses. The catheters are examined for visible growth and cultured onto agar over a period of one week."}, "[8]": {"test_system": "Aerobasidium pullulans (A.p)", "test": "Zone of inhibition, polyvinyl chloride film", "assay_type": "cell-based", "details": "PVC film"}}}
{"smiles": "O=c1c(Cl)c(Cl)sn1C1CCCCC1", "note": "[Compound 1, 4,5-Dichloro-N--cyclohexyl-isothiazolin-3-one]", "values": [{"measurement": "Zone of Inhibition", "setting": "Aspergillis niger (A.n.) [1]; 0.05%", "result": 0, "unit": "mm"}, {"measurement": "Zone of Inhibition", "setting": "Aspergillis niger (A.n.) [1]; 0.1%", "result": 0, "unit": "mm"}, {"measurement": "Zone of Inhibition", "setting": "Aspergillis niger (A.n.) [1]; 0.5%", "result": 5.3, "unit": "mm"}, {"measurement": "MIC", "setting": "Aspergillus niger", "result": 0.5, "unit": "µg/mL"}, {"measurement": "MIC", "setting": "Pseudomonas aeruginosa", "result": 62, "unit": "µg/mL"}, {"measurement": "Growth on Film", "setting": "Aspergillis niger (A.n.) [2]; 0.05%", "result": 1}, {"measurement": "Growth on Film", "setting": "Aspergillis niger (A.n.) [2]; 0.1%", "result": 0}, {"measurement": "Growth on Film", "setting": "Aspergillis niger (A.n.) [2]; 0.5%", "result": 0}, {"measurement": "Growth on Film", "setting": "[3]; 0.05%", "result": 0}, {"measurement": "Growth on Film", "setting": "[3]; 0.1%", "result": 0}, {"measurement": "Growth on Film", "setting": "[3]; 0.5%", "result": 0}, {"measurement": "Zones", "setting": "E.c.; 1.0%", "result": 16.3, "unit": "mm"}, {"measurement": "Zones", "setting": "E.c.; 5.0%", "result": 16.3, "unit": "mm"}, {"measurement": "Zones", "setting": "E.c.; .20%", "result": 14.3, "unit": "mm"}, {"measurement": "Zone of Inhibition", "setting": "E.c.; Conc. 10", "result": 0.1, "unit": "mm"}, {"measurement": "Zone of Inhibition", "setting": "E.c.; Conc. 100", "result": 5.5, "unit": "mm"}, {"measurement": "Zone of Inhibition", "setting": "E.c.; Conc. 1000", "result": 13.0, "unit": "mm"}, {"measurement": "Zone of Inhibition", "setting": "Echerichia coli (E.c.); 0.05%", "result": 0.8, "unit": "mm"}, {"measurement": "Zone of Inhibition", "setting": "Echerichia coli (E.c.); 0.1%", "result": 1.8, "unit": "mm"}, {"measurement": "Zone of Inhibition", "setting": "Echerichia coli (E.c.); 0.5%", "result": 4.8, "unit": "mm"}, {"measurement": "Zone of Inhibition", "setting": "[4]; 0.05%", "result": 1.8, "unit": "mm"}, {"measurement": "Zone of Inhibition", "setting": "[4]; 0.1%", "result": 4.3, "unit": "mm"}, {"measurement": "Agar culture", "setting": "sessile colonization; 0.05%", "result": "+3"}, {"measurement": "Visual Observation", "setting": "sessile colonization; 0.05%", "result": "slime covered"}, {"measurement": "Agar culture", "setting": "sessile colonization; 0.1%", "result": "+1"}, {"measurement": "Visual Observation", "setting": "sessile colonization; 0.1%", "result": "slight slime layer"}, {"measurement": "Agar culture", "setting": "sessile colonization; 0.5%", "result": "trace"}, {"measurement": "Visual Observation", "setting": "sessile colonization; 0.5%", "result": "clean"}, {"measurement": "Agar culture", "setting": "sessile colonization; 1.0%", "result": 0}, {"measurement": "Visual Observation", "setting": "sessile colonization; 1.0%", "result": "clean"}, {"measurement": "efficacy in resisting sessile colonization", "setting": "sessile colonization; treated polyvinyl chloride, compared to untreated control", "result": "resisting sessile colonization, particularly as compared to untreated control"}, {"measurement": "bacteriocide activity compared with the best commercial antibiotics", "setting": "S.a.; PVC and silicone films, Table E", "result": "essential equivalency"}, {"measurement": "Zones", "setting": "S.a.; 1.0%", "result": 20.3, "unit": "mm"}, {"measurement": "Zones", "setting": "S.a.; 5.0%", "result": 20.3, "unit": "mm"}, {"measurement": "Zones", "setting": "S.a.; .20%", "result": 17.8, "unit": "mm"}, {"measurement": "Zone of Inhibition", "setting": "S.a.; Conc. 10", "result": 0.8, "unit": "mm"}, {"measurement": "Zone of Inhibition", "setting": "S.a.; Conc. 100", "result": 6.8, "unit": "mm"}, {"measurement": "Zone of Inhibition", "setting": "S.a.; Conc. 1000", "result": 16.3, "unit": "mm"}, {"measurement": "MIC", "setting": "Escherichia coli", "result": 16, "unit": "µg/mL"}, {"measurement": "MIC", "setting": "Candida albicans (yeast)", "result": 0.5, "unit": "µg/mL"}, {"measurement": "MIC", "setting": "Aureobasidium pullulans", "result": 0.5, "unit": "µg/mL"}, {"measurement": "Zone of Inhibition", "setting": "[5]; 1.0% by weight", "result": "slight"}, {"measurement": "Zone of Inhibition", "setting": "[5]; 5.0% by weight", "result": 1, "unit": "mm"}, {"measurement": "solubility", "setting": "Solubility in H2O", "result": 91, "unit": "µg/mL"}, {"measurement": "overgrowth of plates by fungi", "setting": "fungi", "result": "clean"}, {"measurement": "resistant bacterial colonies on plates", "setting": "[6]", "result": "ability to suppress all species and not permit the growth of antibiotic resistant species"}, {"measurement": "Zones", "setting": "P.a.; 1.0%", "result": 3.3, "unit": "mm"}, {"measurement": "Zones", "setting": "P.a.; 5.0%", "result": 3.3, "unit": "mm"}, {"measurement": "Zones", "setting": "P.a.; .20%", "result": 0.8, "unit": "mm"}, {"measurement": "MIC", "setting": "Staphylococcus aureus", "result": 10, "unit": "µg/mL"}, {"measurement": "efficacy in resisting sessile colonization", "setting": "[7]", "result": "resisting sessile colonization by bacteria or fungi"}, {"measurement": "Agar culture", "setting": "[7]; 0.05% by weight", "result": "+2"}, {"measurement": "Visual Examination", "setting": "[7]; 0.05% by weight", "result": "slight slime"}, {"measurement": "Agar culture", "setting": "[7]; 0.1% by weight", "result": "+1"}, {"measurement": "Visual Examination", "setting": "[7]; 0.1% by weight", "result": "clean"}, {"measurement": "Agar culture", "setting": "[7]; 0.5% by weight", "result": 0}, {"measurement": "Visual Examination", "setting": "[7]; 0.5% by weight", "result": "clean"}, {"measurement": "Agar culture", "setting": "[7]; 1.0% by weight", "result": 0}, {"measurement": "Visual Examination", "setting": "[7]; 1.0% by weight", "result": "clean"}, {"measurement": "Zone of Inhibition", "setting": "[8]; 0.05%", "result": 0, "unit": "mm"}, {"measurement": "Zone of Inhibition", "setting": "[8]; 0.1%", "result": 0, "unit": "mm"}, {"measurement": "Zone of Inhibition", "setting": "[8]; 0.5%", "result": 5.3, "unit": "mm"}]}
